In the supplement of paper PMC10307832:

Columns and labels:
Assay in all cases: relative viability (nuclei count vs DMSO), 5 days (fraction); higher = more cells survive
[1] = compound: CN(C)C(=N)NC(=N)N [Metformin] + CCNC(=O)c1noc(-c2cc(C(C)C)c(O)cc2O)c1-c1ccc(CN2CCOCC2)cc1 [Luminespib] (partner 0.01 µM)
Summary of the method: (§1)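 Relative viability is defined as nuclei in treated wells over nuclei in vehicle wells. Duplicate plates were run and medians reported. Lung cancer cell lines in 1536-well plates were dosed by pin tool one day after seeding, with one drug or with a fixed anchor-drug dose plus five library-drug doses (not always all listed) in √10 steps, and nuclei were counted after 5 days.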

[2] = compound: CN(C)C(=N)NC(=N)N [Metformin] + N=C(N)NC(=N)NCCc1ccccc1 [Phenformin] (partner 250 µM)
Summary of the method: as §1

[3] = compound: CN(C)C(=N)NC(=N)N [Metformin] + Nc1ncn([C@H]2C[C@H](O)[C@@H](CO)O2)c(=O)n1 [Decitabine] (partner 2 µM)
Summary of the method: as §1

[4] = compound: N#CC1(c2ccc(NC(=O)c3cccnc3NCc3ccncc3)cc2)CCCC1 [Apatinib] + C[C@]1(O)C[C@@H](c2nc(-c3ccc4ccc(-c5ccccc5)nc4c3)c3c(N)nccn32)C1 [Linsitinib] (partner 1 µM)
Summary of the method: as §1

| Cell Line | relative viability ([1]; first compound 10 µM) | relative viability ([1]; first compound 31.62 µM) | relative viability ([1]; first compound 100 µM) | relative viability ([1]; first compound 316.23 µM) | relative viability ([1]; first compound 1000 µM) | relative viability ([2]; first compound 10 µM) | relative viability ([2]; first compound 31.62 µM) | relative viability ([2]; first compound 100 µM) | relative viability ([2]; first compound 316.23 µM) | relative viability ([2]; first compound 1000 µM) | relative viability ([3]; first compound 10 µM) | relative viability ([3]; first compound 31.62 µM) | relative viability ([3]; first compound 100 µM) | relative viability ([3]; first compound 316.23 µM) | relative viability ([3]; first compound 1000 µM) | relative viability ([4]; first compound 0.08 µM) | relative viability ([4]; first compound 0.253 µM) | relative viability ([4]; first compound 0.8 µM) | relative viability ([4]; first compound 2.53 µM) | relative viability ([4]; first compound 8 µM) |
| --- | --- | --- | --- | --- | --- | --- | --- | --- | --- | --- | --- | --- | --- | --- | --- | --- | --- | --- | --- | --- |
| COR-L23 | 0.635 | 0.655 | 0.593 | 0.495 | 0.302 | 0.437 | 0.46 | 0.487 | 0.431 | 0.146 | 0.456 | 0.514 | 0.365 | 0.388 | 0.435 | 1.09 | 0.927 | 0.931 | 0.746 | 0.713 |
| UMC-11 | 1.1 | 1.14 | 1.08 | 1.1 | 0.994 | 0.322 | 0.317 | 0.321 | 0.312 | 0.351 | 0.573 | 0.743 | 0.741 | 0.49 | 0.437 | 0.999 | 1.01 | 0.979 | 0.911 | 0.93 |
| NCI-H3122 | 0.076 | 0.0878 | 0.0846 | 0.0862 | 0.113 | 0.307 | 0.303 | 0.322 | 0.287 | 0.288 | 0.343 | 0.371 | 0.361 | 0.359 | 0.369 | 0.996 | 1.03 | 0.983 | 1.05 | 0.911 |
| BEN | 0.461 | 0.475 | 0.833 | 0.361 | 0.705 | 0.295 | 0.292 | 0.297 | 0.27 | 0.252 | 0.768 | 0.777 | 0.646 | 0.661 | 0.752 | 0.864 | 0.933 | 0.88 | 0.81 | 0.699 |
| LU99A | 0.223 | 0.233 | 0.238 | 0.269 | 0.252 | 0.937 | 0.816 | 0.761 | 0.775 | 0.919 | 0.798 | 0.765 | 0.723 | 0.735 | 0.849 | 0.589 | 0.549 | 0.515 | 0.457 | 0.47 |
| EKVX | 0.872 | 0.948 | 0.809 |  | 0.836 | 0.23 | 0.253 | 0.239 |  | 0.189 |  | 0.302 | 0.369 | 0.325 | 0.322 | 1.04 | 1.09 | 0.985 | 0.862 | 0.795 |
| NCI-H1437 | 1.15 | 1.16 | 1.19 | 1.08 | 1.12 | 0.296 | 0.363 | 0.338 | 0.343 | 0.299 | 0.641 | 0.595 | 0.59 | 0.593 | 0.577 | 1.03 | 1.06 | 0.879 | 0.653 | 0.475 |
| A-427 | 1.21 | 0.972 | 1.04 | 0.952 | 0.91 | 0.32 | 0.376 | 0.325 | 0.284 | 0.287 | 0.524 | 0.587 | 0.571 | 0.521 | 0.574 | 1.1 | 1.06 | 1.07 | 1.11 | 1.09 |
| SK-LU-1 | 0.204 | 0.204 | 0.221 | 0.204 | 0.244 | 0.608 | 0.532 | 0.501 | 0.424 | 0.54 | 0.567 | 0.571 | 0.64 | 0.507 | 0.615 | 1.1 | 1.3 | 1.04 | 0.809 | 0.787 |
| NCI-H2405 | 0.585 | 0.581 | 0.774 | 0.664 | 0.737 | 0.379 | 0.362 | 0.362 | 0.393 | 0.326 |  | 0.783 | 0.756 | 0.677 | 0.64 | 1.05 | 1.12 | 1.05 | 0.95 | 0.955 |
| LK-2 | 0.203 | 0.17 | 0.196 | 0.2 | 0.191 | 0.758 | 0.636 | 0.374 | 0.381 | 0.667 | 0.298 | 0.398 | 0.33 | 0.294 | 0.444 | 0.602 | 0.356 | 0.631 | 0.503 | 0.399 |
| LOU-NH91 | 0.343 | 0.404 | 0.316 | 0.344 | 0.376 | 0.731 | 0.593 | 0.545 | 0.755 | 0.734 | 0.787 | 0.799 | 0.848 | 0.797 | 0.79 | 0.94 | 0.916 | 0.717 | 0.845 | 0.777 |
| COR-L 105 | 0.85 | 0.736 | 0.749 | 0.538 | 0.795 | 0.727 | 0.61 | 0.65 | 0.568 | 0.494 | 0.588 | 0.64 | 0.695 | 0.719 | 0.697 | 0.994 | 1.15 | 0.705 | 0.985 | 0.676 |
| H3255 | 0.858 | 1.01 | 0.88 | 0.657 | 0.867 | 0.395 | 0.365 | 0.436 | 0.338 | 0.382 | 0.531 | 0.665 | 0.596 | 0.61 | 0.624 | 1.17 | 0.819 | 0.954 | 0.896 | 0.836 |
| NCI-H1993 | 0.994 | 1.09 | 0.713 | 0.856 | 0.934 | 0.479 | 0.481 | 0.514 | 0.532 | 0.499 | 0.616 | 0.681 | 0.672 | 0.634 | 0.766 | 0.751 | 0.648 | 0.742 | 0.715 | 0.775 |
| LCLC-103H | 0.934 | 1.18 | 1.06 | 0.961 | 1.04 | 0.337 | 0.374 | 0.407 | 0.324 | 0.398 | 0.72 | 0.738 | 0.714 | 0.714 | 0.788 | 1.1 | 1.05 | 1.06 | 1.09 | 0.993 |
